Source: PMC8903780, “Therapeutic efficacy of an injectable formulation of purinostat mesylate in SU-DHL-6 tumour model” (Annals of Medicine, 2022)

Legend:
[1] = tested on: human double-hit lymphoma SU-DHL-6 xenograft tumours; assay type: in vivo; details: positive control groups, dose column – (RTX 10 mg/kg)
Method: To better determine the anti-tumour activity of the PM/HP-β-CD complex, the SU-DHL-6 cell line xenografts were established in immunodeficiency mice. The NOD/SCID mice were subcutaneously inoculated 7 × 10^6 cells per mouse. […] A mimic of HyperCVAD regimen, standard chemotherapy for B cell lymphoma ([22],[23]), especially aggressive subtypes, for example, double-hit lymphoma, was set as a positive control group for comparison (Table 2). Satellite groups were set up in the 10 mg/kg group, 20 mg/kg group, and the Hyper-CVAD group. Animals in the satellite groups were not sacrificed at the end of the treatment and underwent long-term treatment for further investigation. In the survival study, the animal mortality criterion was that the tumour volume reached 3000 mm^3 or the individual animal died, and the animal survival time was statistically analysed.
When the experimental period was over, the tumour was weighed and photographed, the main organs and tumours were collected, fixed, and embedded in paraffin for Histological and immunohistochemical analysis.

SU-DHL-6 cells = experiment: Annexin V-FITC/PI flow cytometry apoptosis assay; assay type: cell-based, human; details: 6 nM, 48 h
Method: The pro-apoptotic effect of the PM/HP-β-CD complex on SU-DHL-6 cells was investigated by flow cytometry. […] cells in good condition were collected and inoculated in the six-well plate with 2⋄10^5 cells per well. After being cultured for 24 h, cells were treated with PM and PM/HP-β-CD inclusion at 3 nM and 6 nM, using LBH589 at 6 nM as the positive control. The cells without drug treatment were the negative control. After 48 h incubation, the cells were then processed by annexin V-FITC/PI staining as the manufacturer’s instructions (KeyGen, 100 assays).

## Cc1[nH]c2ccccc2c1CCNCc1ccc(/C=C/C(=O)NO)cc1 [LBH589, reference compound]
[1]; 14 days
  RTV: 26.54
  Tumour volume T/C%: 101.83%
  Tumour weight (g) X ± SD: 3.81 ± 1.08 g
  Tumour weight Inhibition (%): 22.72%
[1]; begin of treatment
  Tumour volume (mm^3) X ± SD Begin: 152.7 ± 30.6 mm^3
[1]; end of 14 days treatment
  Tumour volume (mm^3) X ± SD End: 4015.5 ± 1048.0 mm^3
[1]; regimens Table 2, 14 days
  Number End/begin: 7/7
SU-DHL-6 cells
  apoptotic SU-DHL-6 cells: 60.1%
